Source: ChEMBL document CHEMBL1151254, “A new anti-HIV alkaloid, drymaritin, and a new C-glycoside flavonoid, diandraflavone, from Drymaria diandra” (J Nat Prod, 2004)
≈ marks a conversion by molar mass, not a printed value.

Key:
[1] = tested on: Human immunodeficiency virus; experiment: Antiviral activity against HIV in human H9 cells; type: functional, organism-based; settings: Human immunodeficiency virus 1, H9
Neutrophil = experiment: Inhibition of fMLP/CB-stimulated superoxide anion generation in human neutrophils; type: functional, cell-based

COc1cnc2ccc(=O)n3c4ccccc4c1c23
EC50 [1]: 20.6 µg/mL (≈ 82.3 µM)

COc1cc2oc(-c3ccc([C@@H]4O[C@H](CO)[C@@H](O)[C@H](O)[C@H]4O)cc3)cc(=O)c2c(O)c1[C@H]1C[C@@H](O)[C@@H](O)[C@@H](C)O1 [DIANDRAFLAVONE A]
IC50 (Neutrophil): 10 µg/mL (≈ 17.8 µM)

COc1cn2c3ccccc3c3ccnc(c1=O)c32 [DRYMARITIN]
EC50 [1]: 0.699 µg/mL (≈ 2.79 µM)
